Results: ChEMBL document CHEMBL1201862, “PubChem BioAssay data set” (2004)
The source made the active and inactive calls.

What was measured:
[1] = ZM109 Env clade C HIV-1 fusion inhibitors, dose response, HeLa effector, CEM target cells, luciferase, cherry-pick (AID 652058); assay type: functional, cell-based
[2] = off-target signal loss in HeLa-CEM21 co-culture – HeLa F-luc CTL cells, cherry-picked, counter-screen for HIV-1 Env fusion inhibitor project, dose response (AID 652040); assay type: functional, cell-based;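 further: potency for signal decrease marking cytotoxic or nonspecific inhibition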
[3] = inhibitors of HIV Env-driven cell fusion, dose response, cherry-pick (AID 652057); assay type: functional, cell-based
[4] = inhibitors of clade B AD8 Env fusion, dose response, cell-based, cherry-pick (AID 652062); assay type: functional;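 further: luciferase signal from cell-cell fusion driven by HIV-1 clade B AD8 Env; potency is for inhibitors of fusion seen as a drop in luminescence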
[5] = target: Cytochrome P450 3A4 (Homo sapiens, UniProt P08684);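 further: CYP3A4 tested as one member of a cytochrome P450 panel screen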
[6] = CEM21 lymphoblast cell cytotoxicity, dose response, cytotoxicity control for viral fusion inhibitor project, CellTiter-Glo luminescence, cherry-picked (AID 652042); assay type: functional, cell-based;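 further: potency for signal decrease meaning cytotoxicity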
[7] = target: Albumin (Bos taurus, UniProt P02769); assay: Counterscreen for inhibitors of T-cell receptor (TCR)-CD3 interaction: Fluorescence-based biochemical high throughput dose response assay to identify inhibitors of T-cell receptor (TCR)-CD3 interaction using a TAMRA-labeled BSA probe.; assay type: functional
[8] = target: T1, Histone-lysine N-methyltransferase NSD2 (Homo sapiens, UniProt O96028); assay type: biochemical
T1 sequence (O96028 whole entry): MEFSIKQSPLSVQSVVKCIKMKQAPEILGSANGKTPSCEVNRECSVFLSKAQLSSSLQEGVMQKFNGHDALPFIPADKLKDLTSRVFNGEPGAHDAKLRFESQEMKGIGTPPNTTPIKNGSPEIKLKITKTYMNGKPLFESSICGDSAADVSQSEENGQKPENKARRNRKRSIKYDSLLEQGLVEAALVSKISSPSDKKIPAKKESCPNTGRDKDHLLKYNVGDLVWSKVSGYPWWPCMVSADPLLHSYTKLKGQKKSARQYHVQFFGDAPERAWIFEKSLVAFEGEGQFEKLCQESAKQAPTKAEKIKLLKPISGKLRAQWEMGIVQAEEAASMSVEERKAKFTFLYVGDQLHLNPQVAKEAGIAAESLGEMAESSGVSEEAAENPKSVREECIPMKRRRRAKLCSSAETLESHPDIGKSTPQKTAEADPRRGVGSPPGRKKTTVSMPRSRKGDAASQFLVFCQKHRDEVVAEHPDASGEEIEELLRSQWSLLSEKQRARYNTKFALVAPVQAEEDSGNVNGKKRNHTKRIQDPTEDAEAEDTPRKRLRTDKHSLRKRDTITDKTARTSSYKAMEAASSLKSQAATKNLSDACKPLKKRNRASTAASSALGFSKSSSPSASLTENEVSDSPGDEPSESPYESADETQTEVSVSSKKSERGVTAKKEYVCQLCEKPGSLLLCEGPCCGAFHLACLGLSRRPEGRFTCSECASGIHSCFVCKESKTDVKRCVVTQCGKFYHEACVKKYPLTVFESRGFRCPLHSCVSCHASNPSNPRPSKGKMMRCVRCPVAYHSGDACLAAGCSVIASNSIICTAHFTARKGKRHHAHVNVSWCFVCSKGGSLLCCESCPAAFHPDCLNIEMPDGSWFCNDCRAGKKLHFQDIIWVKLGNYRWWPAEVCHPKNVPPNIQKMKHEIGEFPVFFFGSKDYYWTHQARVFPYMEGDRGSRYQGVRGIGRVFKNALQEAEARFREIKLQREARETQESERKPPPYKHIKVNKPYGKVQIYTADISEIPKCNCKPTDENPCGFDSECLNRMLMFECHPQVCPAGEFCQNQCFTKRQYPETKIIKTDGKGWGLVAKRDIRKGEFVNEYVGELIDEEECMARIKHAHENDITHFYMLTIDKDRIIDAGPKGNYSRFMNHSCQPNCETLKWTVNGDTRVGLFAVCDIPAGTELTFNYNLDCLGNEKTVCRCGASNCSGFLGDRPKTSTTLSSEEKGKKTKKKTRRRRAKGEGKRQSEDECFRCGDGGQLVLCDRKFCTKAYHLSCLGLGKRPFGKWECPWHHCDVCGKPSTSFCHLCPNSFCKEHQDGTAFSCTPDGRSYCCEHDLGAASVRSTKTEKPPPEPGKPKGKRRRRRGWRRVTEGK

[9] = target: Large T antigen (Simian virus 40, UniProt P03070); assay type: functional, Betapolyomavirus macacae;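 further: Confirmatory-stage PubChem screen for compounds that inhibit SV40 T antigen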
[10] = target: T2, Beta-lactamase (Pseudomonas aeruginosa, UniProt Q79MP6); assay: […] counterscreen for selective VIM-2 inhibitors: dose response biochemical high throughput screening assay to identify inhibitors of IMP-1 metallo-beta-lactamase.
[11] = target: T2, Beta-lactamase; assay: IMP-1 metallo-beta-lactamase inhibitors, dose response, selectivity assay for VIM-2 inhibitor project, biochemical, epi-absorbance (AID 1920)
[12] = target: Beta-lactamase (Salmonella choleraesuis (strain SC-B67), UniProt Q5J463); assay: Epi-absorbance-based counterscreen for selective VIM-2 inhibitors: dose response biochemical high throughput screening assay to identify inhibitors of TEM-1 serine-beta-lactamase.
[13] = target: T3, Heat shock factor protein 1 (Mus musculus, UniProt P38532); assay: HSF1 potentiators in luciferase reporter cells, confirmation, cell-based, NIH3T3, luminescence, dose retest (AID 435004); assay type: functional;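 further: stress induced by proteasome inhibitor MG132 added 30 min after compound; luciferase reporter driven by HSF1 response element in NIH3T3 cells; actives raise luminescence as potentiators of the MG132 stress response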
T3 sequence (P38532 whole entry): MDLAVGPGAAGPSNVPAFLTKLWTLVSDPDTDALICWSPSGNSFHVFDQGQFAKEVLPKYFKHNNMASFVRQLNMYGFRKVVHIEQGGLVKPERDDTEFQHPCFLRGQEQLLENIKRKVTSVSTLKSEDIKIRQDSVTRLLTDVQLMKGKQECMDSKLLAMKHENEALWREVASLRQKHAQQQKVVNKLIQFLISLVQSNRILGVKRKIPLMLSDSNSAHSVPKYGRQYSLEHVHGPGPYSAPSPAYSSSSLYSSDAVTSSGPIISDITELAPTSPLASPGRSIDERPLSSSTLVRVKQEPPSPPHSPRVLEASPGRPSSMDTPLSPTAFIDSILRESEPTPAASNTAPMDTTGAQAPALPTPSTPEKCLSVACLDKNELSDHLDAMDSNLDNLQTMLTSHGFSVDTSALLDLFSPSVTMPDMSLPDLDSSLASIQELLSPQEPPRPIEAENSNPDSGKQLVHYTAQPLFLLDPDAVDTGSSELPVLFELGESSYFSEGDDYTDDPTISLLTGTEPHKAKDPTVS

[14] = Counterscreen for activators of the function of SWI/SNF related, matrix associated, actin dependent regulator of chromatin, subfamily a, member 2 (SMARCA2, BRM): Luminescence-based cell-based high throughput dose response assay to identify non-selective compounds using the VP16 reporter assay.; assay type: functional
[15] = target: SWI/SNF-related matrix-associated actin-dependent regulator of chromatin subfamily A member 2 (Homo sapiens, UniProt P51531); assay: Luminescence-based cell-based high throughput dose response assay to identify activators of the function of SWI/SNF related, matrix associated, actin dependent regulator of chromatin, subfamily a, member 2 (SMARCA2, BRM).; assay type: functional
[16] = NIH/3T3 fibroblast cytotoxicity, dose response, cytotoxicity control for T. cruzi growth inhibitor project, cell-based, cherry-pick samples, set 2 (AID 651817); assay type: functional; conditions: NIH3T3
[17] = inhibitors of CMV-promoter luciferase reporter, dose response, counter-screen for Pax8 inhibitor project, cell-based, HEK293, luminescence, dry powder (AID 743020); assay type: functional
[18] = target: T4, Sentrin-specific protease 8 (Homo sapiens, UniProt Q96LD8); assay type: functional
T4 sequence (Q96LD8 whole entry): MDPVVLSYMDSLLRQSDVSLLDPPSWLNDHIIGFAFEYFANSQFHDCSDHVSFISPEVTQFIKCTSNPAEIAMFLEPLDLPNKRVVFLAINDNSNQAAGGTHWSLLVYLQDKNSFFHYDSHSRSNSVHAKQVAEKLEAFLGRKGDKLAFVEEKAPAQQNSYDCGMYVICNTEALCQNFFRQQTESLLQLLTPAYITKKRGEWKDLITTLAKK

[19] = target: T5, Probable nicotinate-nucleotide adenylyltransferase (Staphylococcus aureus (strain N315), UniProt P65502); assay type: functional, Staphylococcus aureus subsp. aureus N315; conditions: read-out: IC50_Mean;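 on IC50 Mean: confirmatory dose-response retesting of NadD inhibitor hits first found in an ultra-high-throughput screen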
[20] = target: T4, Sentrin-specific protease 8; assay type: functional; remark: listed apart in the source
[21] = target: T5, Probable nicotinate-nucleotide adenylyltransferase; assay type: functional, Staphylococcus aureus subsp. aureus N315
[22] = target: T6, Apoptotic protease-activating factor 1 (Homo sapiens, UniProt O14727); assay type: functional
T6 sequence (O14727 whole entry): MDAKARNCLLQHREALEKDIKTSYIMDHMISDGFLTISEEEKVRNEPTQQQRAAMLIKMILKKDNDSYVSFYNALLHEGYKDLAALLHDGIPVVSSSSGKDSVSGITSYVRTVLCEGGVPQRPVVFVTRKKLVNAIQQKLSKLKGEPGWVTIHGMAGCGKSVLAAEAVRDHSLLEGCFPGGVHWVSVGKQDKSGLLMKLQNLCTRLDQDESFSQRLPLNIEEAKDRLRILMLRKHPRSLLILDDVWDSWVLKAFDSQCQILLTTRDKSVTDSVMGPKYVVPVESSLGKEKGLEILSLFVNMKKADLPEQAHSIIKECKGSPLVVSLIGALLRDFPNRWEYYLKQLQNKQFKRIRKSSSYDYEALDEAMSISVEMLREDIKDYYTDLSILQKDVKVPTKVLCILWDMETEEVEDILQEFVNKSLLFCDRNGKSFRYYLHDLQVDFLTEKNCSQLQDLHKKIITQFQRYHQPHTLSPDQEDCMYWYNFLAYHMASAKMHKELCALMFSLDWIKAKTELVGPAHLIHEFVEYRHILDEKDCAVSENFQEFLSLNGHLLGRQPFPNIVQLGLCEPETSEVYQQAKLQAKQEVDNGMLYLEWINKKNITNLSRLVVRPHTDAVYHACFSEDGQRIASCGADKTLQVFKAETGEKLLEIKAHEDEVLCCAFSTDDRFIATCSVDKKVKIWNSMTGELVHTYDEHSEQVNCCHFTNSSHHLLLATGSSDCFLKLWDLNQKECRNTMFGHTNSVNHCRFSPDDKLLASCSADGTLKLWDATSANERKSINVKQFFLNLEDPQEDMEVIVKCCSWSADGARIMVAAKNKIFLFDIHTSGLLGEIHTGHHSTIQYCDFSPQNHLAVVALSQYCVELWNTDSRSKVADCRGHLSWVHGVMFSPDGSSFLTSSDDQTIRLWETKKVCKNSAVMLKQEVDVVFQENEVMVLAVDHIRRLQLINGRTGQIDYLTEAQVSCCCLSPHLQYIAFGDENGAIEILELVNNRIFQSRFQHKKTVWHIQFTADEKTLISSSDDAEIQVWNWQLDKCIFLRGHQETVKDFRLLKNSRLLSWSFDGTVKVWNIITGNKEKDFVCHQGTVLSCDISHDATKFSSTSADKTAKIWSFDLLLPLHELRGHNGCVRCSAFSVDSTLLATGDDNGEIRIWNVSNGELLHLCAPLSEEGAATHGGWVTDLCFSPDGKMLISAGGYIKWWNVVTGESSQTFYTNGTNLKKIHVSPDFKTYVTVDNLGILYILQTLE

[23] = target: T7, Fatty acid synthase (Homo sapiens, UniProt P49327); assay: FAS thioesterase domain inhibitors, dose response, biochemical, endpoint fluorescence intensity, uHTS hits (AID 624327); assay type: functional;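 further: fluorescence from hydrolysis of an O-methyl fluorescein acyl ester substrate by the enzyme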
[24] = target: T7, Fatty acid synthase; assay: FAS thioesterase domain inhibitors, dose response, biochemical, kinetic fluorescence intensity (AID 624326); assay type: functional;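 further: rate of fluorescence rise from hydrolysis of a fluorogenic O-methyl fluorescein ester substrate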

T2 sequence (Q79MP6 whole entry): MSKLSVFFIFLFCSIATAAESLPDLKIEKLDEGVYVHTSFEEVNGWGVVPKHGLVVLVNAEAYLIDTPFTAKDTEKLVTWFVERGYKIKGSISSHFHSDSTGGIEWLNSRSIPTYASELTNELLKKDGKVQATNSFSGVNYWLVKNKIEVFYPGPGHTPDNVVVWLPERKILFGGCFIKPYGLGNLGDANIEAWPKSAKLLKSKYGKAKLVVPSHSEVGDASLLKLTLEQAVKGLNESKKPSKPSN
T7 sequence (P49327 whole entry, the tested form may be a part): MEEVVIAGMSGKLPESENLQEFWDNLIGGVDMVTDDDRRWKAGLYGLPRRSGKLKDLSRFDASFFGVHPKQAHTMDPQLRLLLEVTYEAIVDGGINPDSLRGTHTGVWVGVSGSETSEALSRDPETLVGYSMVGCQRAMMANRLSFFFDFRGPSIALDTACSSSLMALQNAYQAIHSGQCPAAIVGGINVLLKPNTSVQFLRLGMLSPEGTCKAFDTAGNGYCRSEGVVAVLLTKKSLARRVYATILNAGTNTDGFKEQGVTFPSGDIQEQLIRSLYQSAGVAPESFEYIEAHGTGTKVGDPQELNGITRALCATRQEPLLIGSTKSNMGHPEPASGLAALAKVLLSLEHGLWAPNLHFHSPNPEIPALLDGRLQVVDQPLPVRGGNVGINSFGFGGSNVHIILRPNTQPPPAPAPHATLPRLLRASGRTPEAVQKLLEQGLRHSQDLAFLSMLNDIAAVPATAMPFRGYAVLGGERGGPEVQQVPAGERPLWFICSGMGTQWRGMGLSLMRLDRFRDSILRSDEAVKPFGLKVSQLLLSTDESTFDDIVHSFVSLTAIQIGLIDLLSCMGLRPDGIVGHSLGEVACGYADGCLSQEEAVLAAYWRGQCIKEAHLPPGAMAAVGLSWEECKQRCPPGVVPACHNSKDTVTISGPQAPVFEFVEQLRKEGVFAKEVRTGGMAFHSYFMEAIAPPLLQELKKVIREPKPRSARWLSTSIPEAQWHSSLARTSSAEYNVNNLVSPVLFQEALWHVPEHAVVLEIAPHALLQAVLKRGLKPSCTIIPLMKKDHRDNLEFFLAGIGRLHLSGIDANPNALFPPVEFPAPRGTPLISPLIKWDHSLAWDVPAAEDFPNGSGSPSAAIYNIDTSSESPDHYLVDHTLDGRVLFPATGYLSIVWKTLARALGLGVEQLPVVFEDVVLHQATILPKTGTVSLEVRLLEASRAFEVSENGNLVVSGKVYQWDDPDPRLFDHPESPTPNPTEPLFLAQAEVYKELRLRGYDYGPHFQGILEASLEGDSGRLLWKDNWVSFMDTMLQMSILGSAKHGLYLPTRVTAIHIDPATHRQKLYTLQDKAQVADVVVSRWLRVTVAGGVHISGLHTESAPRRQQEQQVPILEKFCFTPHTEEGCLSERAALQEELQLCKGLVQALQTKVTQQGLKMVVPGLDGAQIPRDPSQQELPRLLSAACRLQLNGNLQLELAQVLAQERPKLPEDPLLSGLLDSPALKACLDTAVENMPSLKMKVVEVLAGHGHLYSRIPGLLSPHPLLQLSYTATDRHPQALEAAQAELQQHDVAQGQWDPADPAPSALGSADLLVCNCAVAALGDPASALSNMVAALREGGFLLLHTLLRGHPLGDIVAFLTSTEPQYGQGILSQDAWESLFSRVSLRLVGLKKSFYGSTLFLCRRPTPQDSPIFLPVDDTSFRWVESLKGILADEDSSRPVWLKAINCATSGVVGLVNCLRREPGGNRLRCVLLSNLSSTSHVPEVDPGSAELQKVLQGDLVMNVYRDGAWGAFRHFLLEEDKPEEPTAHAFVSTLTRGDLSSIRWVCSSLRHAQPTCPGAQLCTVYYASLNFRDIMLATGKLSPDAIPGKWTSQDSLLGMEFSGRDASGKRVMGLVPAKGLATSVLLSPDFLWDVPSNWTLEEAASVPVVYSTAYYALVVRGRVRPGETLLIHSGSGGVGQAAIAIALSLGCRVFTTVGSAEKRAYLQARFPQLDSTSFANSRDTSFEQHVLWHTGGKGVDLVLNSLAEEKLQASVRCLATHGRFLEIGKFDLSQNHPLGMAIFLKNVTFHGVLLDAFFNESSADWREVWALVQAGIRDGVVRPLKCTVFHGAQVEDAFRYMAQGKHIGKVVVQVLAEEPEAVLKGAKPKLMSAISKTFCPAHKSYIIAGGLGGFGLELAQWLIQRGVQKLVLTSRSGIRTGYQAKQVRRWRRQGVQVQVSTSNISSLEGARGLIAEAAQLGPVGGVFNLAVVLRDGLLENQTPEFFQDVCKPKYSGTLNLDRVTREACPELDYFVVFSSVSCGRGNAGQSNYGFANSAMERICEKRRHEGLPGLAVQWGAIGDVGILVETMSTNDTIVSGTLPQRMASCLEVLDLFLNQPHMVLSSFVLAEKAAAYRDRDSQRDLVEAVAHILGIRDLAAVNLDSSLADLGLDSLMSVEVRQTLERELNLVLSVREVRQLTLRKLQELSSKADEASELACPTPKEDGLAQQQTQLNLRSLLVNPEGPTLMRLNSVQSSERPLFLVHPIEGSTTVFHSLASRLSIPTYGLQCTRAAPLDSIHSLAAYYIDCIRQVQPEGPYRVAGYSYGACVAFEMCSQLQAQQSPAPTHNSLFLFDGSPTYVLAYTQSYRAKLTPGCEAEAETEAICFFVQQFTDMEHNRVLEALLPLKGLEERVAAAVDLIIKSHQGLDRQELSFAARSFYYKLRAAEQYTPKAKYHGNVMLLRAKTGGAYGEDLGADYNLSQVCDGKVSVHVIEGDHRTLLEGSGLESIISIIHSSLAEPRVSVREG
Chain of Beta-lactamase (Salmonella choleraesuis (strain SC-B67), UniProt Q5J463) (Q5J463 whole entry): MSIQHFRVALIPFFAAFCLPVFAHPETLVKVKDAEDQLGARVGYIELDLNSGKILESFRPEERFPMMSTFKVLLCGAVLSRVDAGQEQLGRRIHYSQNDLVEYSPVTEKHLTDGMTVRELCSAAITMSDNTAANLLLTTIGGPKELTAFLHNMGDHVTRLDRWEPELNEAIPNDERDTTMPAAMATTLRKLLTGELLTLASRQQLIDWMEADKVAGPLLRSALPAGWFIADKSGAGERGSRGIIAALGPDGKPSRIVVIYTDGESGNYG
T5 sequence (P65502 whole entry): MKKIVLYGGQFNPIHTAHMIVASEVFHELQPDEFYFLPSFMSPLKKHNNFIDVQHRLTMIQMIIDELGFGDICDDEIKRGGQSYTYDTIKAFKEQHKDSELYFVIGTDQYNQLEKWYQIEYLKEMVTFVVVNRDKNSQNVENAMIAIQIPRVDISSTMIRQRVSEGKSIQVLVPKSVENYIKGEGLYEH
Chain of Albumin (P02769 whole entry): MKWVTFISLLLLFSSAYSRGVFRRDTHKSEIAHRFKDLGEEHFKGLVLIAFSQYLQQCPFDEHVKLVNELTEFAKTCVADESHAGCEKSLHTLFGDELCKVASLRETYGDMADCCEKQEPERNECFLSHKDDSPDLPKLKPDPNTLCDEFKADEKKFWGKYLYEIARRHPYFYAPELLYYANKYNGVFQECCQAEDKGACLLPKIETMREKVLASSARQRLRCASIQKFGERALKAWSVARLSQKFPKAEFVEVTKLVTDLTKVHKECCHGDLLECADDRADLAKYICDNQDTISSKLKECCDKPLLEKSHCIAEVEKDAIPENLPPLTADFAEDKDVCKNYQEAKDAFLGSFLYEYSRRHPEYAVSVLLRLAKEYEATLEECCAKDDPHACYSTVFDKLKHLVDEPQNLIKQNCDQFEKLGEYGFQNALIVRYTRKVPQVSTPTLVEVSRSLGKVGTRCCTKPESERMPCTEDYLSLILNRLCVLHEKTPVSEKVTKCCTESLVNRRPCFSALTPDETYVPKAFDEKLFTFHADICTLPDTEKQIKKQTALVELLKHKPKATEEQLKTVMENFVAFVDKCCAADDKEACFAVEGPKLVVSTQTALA
Chain of Large T antigen (P03070 whole entry): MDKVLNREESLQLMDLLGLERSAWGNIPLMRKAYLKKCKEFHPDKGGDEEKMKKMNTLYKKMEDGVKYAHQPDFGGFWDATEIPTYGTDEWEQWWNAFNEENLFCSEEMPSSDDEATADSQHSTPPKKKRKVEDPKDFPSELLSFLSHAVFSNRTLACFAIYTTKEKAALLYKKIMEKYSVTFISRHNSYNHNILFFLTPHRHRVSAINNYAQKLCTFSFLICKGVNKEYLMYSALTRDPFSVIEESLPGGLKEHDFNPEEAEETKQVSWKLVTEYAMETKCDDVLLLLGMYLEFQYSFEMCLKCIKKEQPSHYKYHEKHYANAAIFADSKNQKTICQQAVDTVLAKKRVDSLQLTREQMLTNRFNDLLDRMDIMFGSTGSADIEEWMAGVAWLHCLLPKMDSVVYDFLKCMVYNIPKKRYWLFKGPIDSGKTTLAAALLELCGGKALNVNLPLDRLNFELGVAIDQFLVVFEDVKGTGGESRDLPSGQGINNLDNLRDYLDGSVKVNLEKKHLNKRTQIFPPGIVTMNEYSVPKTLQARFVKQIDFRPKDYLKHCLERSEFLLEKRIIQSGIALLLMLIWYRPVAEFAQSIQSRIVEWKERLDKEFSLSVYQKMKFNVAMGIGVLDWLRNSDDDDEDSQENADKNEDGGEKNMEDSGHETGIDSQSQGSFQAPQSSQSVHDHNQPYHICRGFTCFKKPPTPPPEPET
Chain of Cytochrome P450 3A4 (P08684 whole entry, the tested form may be a part): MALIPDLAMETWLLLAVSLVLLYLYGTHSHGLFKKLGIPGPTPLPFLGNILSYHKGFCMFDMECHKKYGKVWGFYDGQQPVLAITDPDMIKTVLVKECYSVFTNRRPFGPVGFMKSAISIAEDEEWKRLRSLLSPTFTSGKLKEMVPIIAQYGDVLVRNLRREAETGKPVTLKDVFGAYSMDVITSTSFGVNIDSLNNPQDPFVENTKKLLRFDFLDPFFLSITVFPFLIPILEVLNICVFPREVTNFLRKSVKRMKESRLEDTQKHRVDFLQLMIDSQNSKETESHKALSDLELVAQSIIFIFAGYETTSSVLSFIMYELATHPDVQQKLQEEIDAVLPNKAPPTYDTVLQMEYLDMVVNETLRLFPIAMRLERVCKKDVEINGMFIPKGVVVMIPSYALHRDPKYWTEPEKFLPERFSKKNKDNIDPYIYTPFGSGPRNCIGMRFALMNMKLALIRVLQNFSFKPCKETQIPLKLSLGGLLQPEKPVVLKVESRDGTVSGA

Compound: O=S1(=O)CCN(c2ccccc2CC(c2c[nH]c3ccccc23)c2c[nH]c3ccccc23)CC1
- AC50 [1]: < 0.26 µM (active)
- AC50 [2]: 0.555 µM (active)
- AC50 [3]: < 0.26 µM (active)
- AC50 [4]: 1.06 µM (active)
- AC50 [5]: 2.51 µM (inconclusive)
- AC50 [6]: 24.6 µM (active)

Compound: COc1cc(Br)cc2cc(C(=O)N3CCN(C(=O)c4ccco4)CC3)c(=O)oc12
- IC50 [7]: > 94.1 µM (inactive)

Compound: Cc1c(CC(=O)N2CCN(C(=O)C3COc4ccccc4O3)CC2)c(=O)oc2c(O)c(O)ccc12 (centres undefined)
- IC50 [7]: > 94.1 µM (inactive)
- AC50 [8]: 3.53 µM (active)
- IC50 [9]: 2.43 µM (active)

Compound: O=C(CSc1nnc(NC(=O)c2ccccc2F)s1)NCc1ccc(F)cc1
- IC50 [10]: > 59.6 µM (inactive)
- IC50 [11]: > 59.6 µM (inactive)
- IC50 [12]: > 59.6 µM (inactive)

Compound: CCCc1cc(=O)oc2c3c(cc(OCC(=O)N[C@@H](C)C(=O)O)c12)OC(C)(C)CC3
- EC50 [13]: > 260 µM (inactive)
- IC50 [10]: > 59.6 µM (inactive)
- IC50 [11]: > 59.6 µM (inactive)
- IC50 [12]: > 59.6 µM (inactive)

Compound: NC(CCc1ccccc1)c1csc(Nc2ccccn2)n1 (centres undefined)
- AC50 [1]: 7.52 µM (active)
- AC50 [2]: 3.22 µM (active)
- AC50 [3]: 6.61 µM (active)
- AC50 [4]: 22.6 µM (active)
- AC50 [6]: 38.1 µM (active)

Compound: CCCCCCN[C@H]1CCC2C3CC=C4C[C@@H](O)CC[C@]4(C)C3CC[C@@]21C (some centres undefined)
- EC50 [14]: > 91.2 µM (inactive)
- EC50 [15]: > 91.2 µM (inactive)

Compound: C[C@H](CO)N1C[C@H](C)[C@@H](CN(C)Cc2ccc(Cl)c(Cl)c2)Oc2ccc(NS(=O)(=O)c3ccc(F)cc3)cc2CC1=O
- AC50 [16]: 10.6 µM (active)

Compound: Cc1ccc(S(=O)(=O)Nc2ccc3c(c2)CC(=O)N([C@@H](C)CO)C[C@@H](C)[C@@H](CN(C)S(=O)(=O)c2ccc(Cl)cc2)O3)cc1
- AC50 [16]: 35 µM (active)

Compound: C[C@@H]1CN([C@@H](C)CO)C(=O)CCCn2nncc2CO[C@H]1CN(C)S(=O)(=O)c1ccc(Cl)cc1
- AC50 [17]: < 1 µM (active)

Compound: Cc1nn(-c2ccc(Cl)cc2)c(O)c1C(c1ccccc1O)c1c(C)[nH]n(-c2ccc(Cl)cc2)c1=O (centres undefined)
- IC50 [18]: 8.38 µM (active)
- IC50 [19]: 21.1 µM (active)
- IC50 [20]: 32.9 µM (active)
- IC50 [21]: 6.68 µM (active)
- IC50 [22]: 13.3 µM (active)

Compound: COc1ccc(/C=N\NC(=O)CNC(=O)C(c2ccccc2)c2ccccc2)cc1[N+](=O)[O-]
- IC50 [23]: 16.6 µM (active)
- IC50 [24]: 12.3 µM (active)
